Source: the NIST ThermoML archive (doi:10.1021/acs.jced.5b00623)
Values joined by “and” are separate entries in the source; they are usually repeats but may differ in a detail not shown here. Equal values may be shown once.

Details: for mass density: Buoyancy - hydrostatic balance with magnetic suspension - two sinkers; for vapor or sublimation pressure: Closed cell (Static) method; for speed of sound: Spherical resonator

O=C(C(F)(F)C(F)(F)F)C(F)(C(F)(F)F)C(F)(F)F [dodecafluoro-2-methylpentan-3-one]
Details | mass density [kg/m3] | speed of sound [m/s]
400.01 K, 16056 kPa, Liquid | 1413.68 | –
400.01 K, 24343 kPa, Liquid | 1465.04 | –
400.05 K, 54.88 kPa, Gas | – | 102.64
400.05 K, 54.92 kPa, Gas | – | 102.64
400.05 K, 154.66 kPa, Gas | – | 99.83
400.05 K, 252.99 kPa, Gas | – | 96.94
400.05 K, 354.19 kPa, Gas | – | 93.75
400.05 K, 451.42 kPa, Gas | – | 90.4
400.05 K, 554.73 kPa, Gas | – | 86.45
400.05 K, 667.8 kPa, Gas | – | 81.52
402 K, 14323 kPa, Liquid | 1395.32 | –
410.01 K, 16854 kPa, Liquid | 1394.24 | –
420 K, 19987 kPa, Liquid | 1392.85 | –
420.02 K, 6075.7 kPa, Liquid | 1241.69 | –
425.04 K, 60.31 kPa, Gas | – | 105.94
425.04 K, 144.61 kPa, Gas | – | 104
425.04 K, 258 kPa, Gas | – | 101.36
425.04 K, 399.11 kPa, Gas | – | 97.86
425.04 K, 546.05 kPa, Gas | – | 93.91
425.04 K, 696.35 kPa, Gas | – | 89.45
425.04 K, 845.73 kPa, Gas | – | 84.47
425.04 K, 951.86 kPa, Gas | – | 80.49
425.04 K, 1061.7 kPa, Gas | – | 75.84
429.99 K, 8117.7 kPa, Liquid | 1240.57 | –
430.02 K, 23113 kPa, Liquid | 1391.48 | –
440 K, 10172 kPa, Liquid | 1239.42 | –
440.01 K, 26214 kPa, Liquid | 1390.14 | –
449.97 K, 1492 kPa, Gas | – | 74.05
449.98 K, 99.8 kPa, Gas | – | 108.43
449.98 K, 296.98 kPa, Gas | – | 104.72
449.98 K, 499.37 kPa, Gas | – | 100.64
449.98 K, 701.04 kPa, Gas | – | 96.26
449.98 K, 901.63 kPa, Gas | – | 91.5
449.98 K, 1104.8 kPa, Gas | – | 86.19
449.98 K, 1292.1 kPa, Gas | – | 80.71
449.98 K, 1680.8 kPa, Gas | – | 66.68
450 K, 12226 kPa, Gas | 1238.27 | –
450.01 K, 394.1 kPa, Gas | 35.895 | –
450.01 K, 913.4 kPa, Gas | 93.929 | –
450.01 K, 1478.4 kPa, Gas | 185.135 | –
450.01 K, 2042.6 kPa, Gas | 417.845 | –
450.01 K, 2500.6 kPa, Gas | 856.702 | –
450.01 K, 2998.2 kPa, Gas | 943.857 | –
450.01 K, 3997.1 kPa, Gas | 1026.46 | –
450.01 K, 4993.9 kPa, Gas | 1075.63 | –
450.01 K, 5983.6 kPa, Gas | 1111.42 | –
450.01 K, 8215.2 kPa, Gas | 1169.39 | –
450.01 K, 12010 kPa, Gas | 1235.17 | –
450.01 K, 15954 kPa, Gas | 1283.62 | –
450.01 K, 19948 kPa, Gas | 1321.88 | –
450.01 K, 29286 kPa, Gas | 1388.75 | –
460 K, 14282 kPa, Gas | 1237.17 | –
469.99 K, 2186.2 kPa, Gas | 306.462 | –
469.99 K, 2797.9 kPa, Gas | 560.84 | –
469.99 K, 3424.1 kPa, Gas | 779.472 | –
469.99 K, 6087.4 kPa, Gas | 1018.11 | –
470 K, 680 kPa, Gas | 61.543 | –
470 K, 1356.4 kPa, Gas | 142.264 | –
470 K, 4374.3 kPa, Gas | 910.538 | –
470 K, 7969.1 kPa, Gas | 1085.6 | –
470 K, 9768.9 kPa, Gas | 1131.11 | –
470 K, 11977 kPa, Gas | 1173.86 | –
470 K, 14031 kPa, Gas | 1205.91 | –
470 K, 16332 kPa, Gas | 1236.02 | –
475.01 K, 147.79 kPa, Gas | – | 110.98
475.01 K, 349.5 kPa, Gas | – | 107.83
475.01 K, 501.76 kPa, Gas | – | 105.38
475.01 K, 501.77 kPa, Gas | – | 105.38
475.01 K, 501.78 kPa, Gas | – | 105.38
475.01 K, 501.8 kPa, Gas | – | 105.38
475.01 K, 697.46 kPa, Gas | – | 102.08
475.01 K, 898.52 kPa, Gas | – | 98.51
475.01 K, 1150.9 kPa, Gas | – | 93.77
475.01 K, 1296.2 kPa, Gas | – | 90.92
475.01 K, 1496.6 kPa, Gas | – | 86.78
475.01 K, 1685 kPa, Gas | – | 82.69
500.01 K, 103.24 kPa, Gas | – | 114.77
500.01 K, 301.45 kPa, Gas | – | 112.25
500.01 K, 502.44 kPa, Gas | – | 109.63
500.01 K, 502.55 kPa, Gas | – | 109.63
500.01 K, 502.62 kPa, Gas | – | 109.63
500.01 K, 502.7 kPa, Gas | – | 109.63
500.01 K, 502.81 kPa, Gas | – | 109.64
500.01 K, 503 kPa, Gas | – | 109.64
500.01 K, 703.51 kPa, Gas | – | 106.95
500.01 K, 893.84 kPa, Gas | – | 104.33
500.01 K, 1100.4 kPa, Gas | – | 101.42
500.01 K, 1100.8 kPa, Gas | – | 101.42
500.01 K, 1308.1 kPa, Gas | – | 98.44
500.01 K, 1503.6 kPa, Gas | – | 95.59
500.01 K, 1746.5 kPa, Gas | – | 92
500.02 K, 1746.7 kPa, Gas | – | 92
500.02 K, 1746.9 kPa, Gas | – | 91.99

Liquid
Details | vapor or sublimation pressure
400.01 K | 826 kPa
410.02 K | 1016 kPa
410.03 K | 1014.3 kPa
420.02 K | 1238.2 kPa and 1238.3 kPa
